# Source: patent publication US20110136916A1, “6-SHOGAOL FOR USING IN A METHOD FOR THE TREATMENT OF LEUKEMIA” (China Pharmaceutical University, priority 2009, published 2011)
# “Also recorded” adds a separate entry of the source. Read-outs that look alike come from different tables or passages of the source.
# How the values were obtained:
# [1] = tested on: human promyelocytic leukemia cell HL-60; assay: MTT anti-proliferation, HL-60; format: cell-based; details: for growth inhibition (activities of cells vs control): HL-60, 1-20 μM; for IC50: HL-60, MTT, n = 3
# Method: (§1) Cells in logarithmic growth phase were collected and then inoculated in 1˜2×10^4 cells/well in a 96-well plate respectively according to the sizes of cells and whether they attached to the wall, the cells were centrifuged and the supernatant was removed after growing for 24 hours, and then drug administration was carried out according to the groups as below: the drug group and the drug free group were set up for tumor cells (the concentrations ranged from 1˜20 μM), 5 or 6 duplicates were set for each group and the cells were incubated for 24 or 72 hours. The supernatant was removed and 100 μl serum free culture solution containing 0.5 mg/ml MTT (tetrazolium) was added for further incubation for 4 hours, subsequently 100 μl DMSO (dimethyl sulfoxide) was added and the plate was kept on the micro-shaker for 10 minutes, and the OD value was determined on a micro-plate reader at the wavelength of 570 nm. Evaluations on the toxicity were carried out on normal human cell line LO-2 and each test was repeated for three times.
# [2] = tested on: normal human cell line LO-2; assay: MTT toxicity evaluation on normal cell line LO-2; format: cell-based; details: for growth inhibition of normal hepatic cell line LO-2: LO-2, 1-20 μM
# Method: as §1
# [3] = tested on: human leukemia Jurkat cells; assay: Annexin V/PI flow cytometry apoptosis of Jurkat cells; format: cell-based; details: for Apoptotic rate: Jurkat
# Method: Jurkat cells in logarithmic growth phase of growth were collected (3−10×10^5) and inoculated to a 24-well plate in 3×10^5 cells/mL/well, then after incubation for 24 hours, different concentrations of 6-shogaol (0, 1, 2.5, 5, 10 and 15 μM) were added for treatment for 24 hours and also 6-shogaol at a concentration of 15 μM were added for treatment at different durations (0, 2, 4, 6, 12 and 24 h). After reacting with 6-shogaol under different conditions, the cells were collected into 1 mL centrifuge tubes and then centrifuged at 500 rpm (or 100×g) for 5 minutes, the supernatant was removed and the cells were rinsed with 0.01 M PBS at 500 rpm (or 100×g) for 5 minutes twice, and the flow cytometry analysis (Becton Dickinson FACScan Flow Cytometer) was carried out after adding binding solution and staining according to the directions for use of Annexin V/PI double staining kit (BD Company). The FACS data were analyzed by professional operators of the flow cytometer by using FLOWJO software (Tree Star, Calif.) software, the apoptotic rate was counted by the sum of early apoptosis and late apoptosis, and the results were shown in Table 2 and Table 3.
# [4] = tested on: peripheral blood lymphocytes (PBMC) of healthy volunteers; assay: Annexin V/PI apoptosis of PBMC from healthy volunteers; format: cell-based, human; details: 24 hours
# Method: After application by the research group and approval by the Ethics Committee of the hospital, the leukemia patients (healthy volunteers) signed the informed consent and their fresh blood was collected and transferred into heparin anticoagulation tubes, then the same volume of serum free D-Hank buffer (preheated at 37° C.) was added to re-suspend the cells, and the suspension was added to the pre-laid human lymphocyte separating medium (preheated at 37° C.), and the volume ratio between the lymphocyte separating medium and the cell suspension should be no lower than 1:1, and the mixture was centrifuged at room temperature (20-30° C.) at 500×g by a horizontal centrifuge for 30 minutes. The upper layer plasma was removed and the white fog layer in the middle was carefully collected and transferred to 5 mL (or 1-2 times of the volume) PBS (or serum free buffer for cell culture), then it was centrifuged at 200×g or 1000 rpm for 10 minutes at room temperature (20-30° C.), and the supernatant was removed, and the obtained precipitation was the peripheral blood lymphocytes (PBMC). The cells were rinsed twice according to the above-mentioned operations at 500×g by the horizontal centrifuge for 10 minutes at room temperature (20-30° C.), subsequently the cells were collected and their cell vitality was detected by using dye exclusion method for living cells (Trypan blue).
# The cells were added to a 24-well plate in 3×10^5 cells/mL/well and different concentrations of 6-shogaol (10 and 20 μM) for treatment for 24 hours after they were incubated for 24 hours. Negative control group (the group without drug) and the treatment group with 6-shogaol were set up for PBMCs from different individuals respectively. After the cells were treated with 6-shogaol for 24 hours, they were transferred into 10 mL glass centrifuge tubes and centrifuged at 500 rpm (or 100×g) for 5 minutes to remove the supernatant. The cells were then rinsed with 0.01 M PBS at 500 rpm (or 100×g) for 5 minutes twice. Subsequently, after adding binding solution and staining according to the directions for use of Annexin V/PI double staining kit (BD Company), flow cytometry analysis (Becton Dickinson FACScan Flow Cytometer) was carried out. The FACS data were analyzed by professional operators of the flow cytometer by using FLOWJO software (Tree Star, Calif.) software, the apoptotic rate was counted by the sum of early apoptosis and late apoptosis, and the results were shown in Table 4 and Table 5.
# [5] = tested on: pulmonary carcinoma A549 cells; details: 48 hours; read-out: IC50 for inhibiting the proliferation of A549 cells; cited from earlier work
# [6] = tested on: human colon carcinoma COLO 205 cells; details: read-out: IC50 for inhibiting the growth of COLO 205 cells; cited from earlier work
# [7] = tested on: human ovarian cancer SK-OV-3 cells; details: cited from earlier work
# ddY line mice = details: cited from earlier work
smiles,measurement,setting,value
CCCCC/C=C/C(=O)CCc1ccc(O)c(OC)c1 [6-shogaol],growth inhibition (activities of cells vs control),"[1]; 24 hours, FIG. 2",significantly decreased
same,growth inhibition (activities of cells vs control),"[1]; 72 hours, FIG. 6",significantly decreased
same,IC50,"[1]; 24 hours, read-out: Mean IC50 after 24 hours",6.93 ± 1.28 µM
same,IC50,"[1]; 72 hours, read-out: Mean IC50 after 72 hours",3.7 ± 0.25 µM
same,IC50,"[1]; Homo sapiens, HL-60, 24 h, 24 hours, read-out: Mean IC50 after 24 hours",< 10 µM
same,IC50,"[1]; Homo sapiens, HL-60, 72 h, 72 hours, read-out: Mean IC50 after 72 hours",< 5 µM
same,growth inhibition of normal hepatic cell line LO-2,[2]; 24 hours,didn't inhibit the proliferation
same,growth inhibition of normal hepatic cell line LO-2,[2]; 72 hours,didn't inhibit the proliferation
same,toxicity on normal hepatic cells LO-2,[2]; summary statement,No toxic reaction was found; also recorded: low toxicity
same,Apoptotic rate,"[3]; 1 μM, 24 hours, n = 3",11.2 ± 0.9bd %
same,Apoptotic rate,"[3]; 2.5 μM, 24 hours, n = 3",17.8 ± 1.4bd %
same,Apoptotic rate,"[3]; 5 μM, 24 hours, n = 3",25.9 ± 3.2bc %
same,Apoptotic rate,"[3]; 10 μM, 24 hours, n = 3",48.7 ± 3.1bd %
same,Apoptotic rate,"[3]; 15 μM, 2 hours, n = 3",7.7 ± 2.1%
same,Apoptotic rate,"[3]; 15 μM, 4 hours, n = 3",14.6 ± 2.5ac %
same,Apoptotic rate,"[3]; 15 μM, 6 hours, n = 3",28.5 ± 3.3bd %
same,Apoptotic rate,"[3]; 15 μM, 12 hours, n = 3",45.3 ± 2.6bd %
same,Apoptotic rate,"[3]; 15 μM, 24 hours, n = 3 (Table 2)",73.2 ± 2.8bd %
same,Apoptotic rate,"[3]; 15 μM, 24 hours, n = 3 (Table 3)",72.3 ± 2.4bd %
same,induction of apoptosis of Jurkat cells (t-test),"[3]; summary statement, concentration and time dependent",significantly induce the apoptosis
same,effect on apoptosis of PBMC of healthy volunteers (t-test),"[4]; 10 cases of healthy volunteers, 10 and 20 μM",no significant difference; also recorded: no significant effects
same,Apoptotic rate of 10 μM 6-shogaol,"[4]; PBMC of healthy volunteer N1, 10 μM",17.5 ± 0.8%
same,Apoptotic rate of 20 μM 6-shogaol,"[4]; PBMC of healthy volunteer N1, 20 μM",22.8 ± 0.6%
same,Apoptotic rate of 10 μM 6-shogaol,"[4]; PBMC of healthy volunteer N2, 10 μM",13.6 ± 0.9%
same,Apoptotic rate of 20 μM 6-shogaol,"[4]; PBMC of healthy volunteer N2, 20 μM",12.3 ± 1.4%
same,Apoptotic rate of 10 μM 6-shogaol,"[4]; PBMC of healthy volunteer N3, 10 μM",27.6 ± 2.4%
same,Apoptotic rate of 20 μM 6-shogaol,"[4]; PBMC of healthy volunteer N3, 20 μM",31.9 ± 1.7%
same,Apoptotic rate of 10 μM 6-shogaol,"[4]; PBMC of healthy volunteer N4, 10 μM",8.5 ± 0.8%
same,Apoptotic rate of 20 μM 6-shogaol,"[4]; PBMC of healthy volunteer N4, 20 μM",9.7 ± 1.2%
same,Apoptotic rate of 10 μM 6-shogaol,"[4]; PBMC of healthy volunteer N5, 10 μM",16.6 ± 4.8%
same,Apoptotic rate of 20 μM 6-shogaol,"[4]; PBMC of healthy volunteer N5, 20 μM",12.8 ± 3.6%
same,Apoptotic rate of 10 μM 6-shogaol,"[4]; PBMC of healthy volunteer N6, 10 μM",14.6 ± 0.9%
same,Apoptotic rate of 20 μM 6-shogaol,"[4]; PBMC of healthy volunteer N6, 20 μM",12.3 ± 1.4%
same,Apoptotic rate of 10 μM 6-shogaol,"[4]; PBMC of healthy volunteer N7, 10 μM",14.6 ± 1.4%
same,Apoptotic rate of 20 μM 6-shogaol,"[4]; PBMC of healthy volunteer N7, 20 μM",15.9 ± 0.7%
same,Apoptotic rate of 10 μM 6-shogaol,"[4]; PBMC of healthy volunteer N8, 10 μM",18.5 ± 1.8%
same,Apoptotic rate of 20 μM 6-shogaol,"[4]; PBMC of healthy volunteer N8, 20 μM",21.7 ± 1.6%
same,Apoptotic rate of 10 μM 6-shogaol,"[4]; PBMC of healthy volunteer N9, 10 μM",12.5 ± 2.9%
same,Apoptotic rate of 20 μM 6-shogaol,"[4]; PBMC of healthy volunteer N9, 20 μM",14.8 ± 0.9%
same,Apoptotic rate of 10 μM 6-shogaol,"[4]; PBMC of healthy volunteer N10, 10 μM",12.9 ± 1.3%
same,Apoptotic rate of 20 μM 6-shogaol,"[4]; PBMC of healthy volunteer N10, 20 μM",16.5 ± 0.7%
same,IC50,[5],~60 µM
same,IC50,[6],> 60 µM
same,anti-tumor activities,[7],certain anti-tumor activities
same,LD50,ddY line mice; intraperitoneal injection,about 109.2 mg/kg
same,LD50,ddY line mice; intravenous injection,about 50.9 mg/kg
same,LD50,ddY line mice; oral administration,687 mg/kg
